Test results reported in publication PMC10272271, “MAM-2201 acute administration impairs motor, sensorimotor, prepulse inhibition, and memory functions in mice: a comparison with its analogue AM-2201” (Psychopharmacology, 2023).

Key:
CD-1 male mice = assay: Novel Object Recognition (NOR) test; assay type: in vivo, mouse
Experimental: This test was performed according to the method reported by Ennaceur and Delacour ([1988]) and Antunes and Biala (2012). The test was conducted in three phases: habituation, familiarization, and choice. Firstly, CD-1 mice (n = 10/group) were subjected to a 3-day habituation phase, conducted by placing each animal into the NOR chamber (a square open field 60 cm × 60 cm × 40 cm, dark PVC plastic box) located in a dimly lit (50 lx), sound-attenuated and acclimatized room. Mice were allowed to explore freely for 20 min/day. No objects were placed in the box during the habituation trial. Twenty-four hours (h) after last habituation section, the familiarization trial was conducted by placing the mouse in the field in which two identical objects (A, A) were positioned in the corners of the arena approximately 6 cm from the walls. Mice were placed at the mid-point of the wall opposite to the objects and allowed to explore them for 15 min. Fifteen minutes after the familiarization phase, mice were injected with vehicle or drug (MAM-2201 and AM-2201) and tested in two consecutive choice sections performed 2 h (short-term memory) and 24 h (long-term memory) after the drug administration. During the choice test at 2 h, one of the two familiar objects (A) was replaced with a new one (novel; B), different in shape, dimension, and color. Each mouse was then placed in the apparatus and left free to explore the objects (A and B) for 5 min. In the choice test given at 24 h, the mice explored the open field for 5 min in the presence of one familiar (A) and one novel object (C, different from B). Exploration was defined as the time (s) during which the mouse nose was in contact with the object or directed toward it at a distance ≤ 2 cm. Turning around the object was not considered as exploratory behavior.
All experiments were performed using the ANY-maze video tracking system (Ugo Basile, application version 4.99 g Beta) and subsequently analyzed by an observer blind to the mouse treatment and to which object was the novel one. Exploration time of familiar (A) and novel (B) object was detected. The novel object preference was quantified as the Recognition Index (RI) calculated as: RI=novelB-familiarA/novelB+familiarA. Using this metric, scores approaching zero reflects no preference (impairment of recognition memory), positive values reflect preference for the novel object (good recognition memory) while negative numbers reflect preference for the familiar (impairment of recognition memory). Moreover, the total exploration time (s) spent by the animal in the choice phase at 2 h (familiar A + novel B) and 24 h (familiar A + novel C) was calculated to investigate the effect of drugs on object exploration.
The objects to be discriminated by mice were 7 sets of novel and familiar objects of different material (plastic, glass, or ceramic), shape (cube, parallelepiped, and cylinder), dimension (height: 3–8 cm; width: 6–8), and color (light yellow, red and blue). The set of objects used in the familiarization phase (two identical A, A objects) was used in the subsequent vehicle/drug conditions at 2 and 24 h. The choice of object for novel or familiar was counterbalanced and the position of each object was also alternated between trials to avoid any misinterpretation of data. The object weight was such that they could not be displaced by mice. To avoid mice olfactory cues, objects and apparatus were carefully cleaned with a dilute (5%) ethanol solution and water between animal trials and also between familiarization and choice phase (executed 2 and 24 h after the familiarization phase). Animals that spent less than 10 s exploring both objects were excluded from the study and replaced by other animals.

CB1 receptors = target: CB1 receptors; design: method as in Howlett et al. [2002]; Hess et al. [2015]; conditions: ref Howlett et al. [2002]; Hess et al. [2015]; read-out: CB1 receptor Ki; cited from earlier work
human CB1 receptors = target: T1, human CB1 receptors (Homo sapiens, UniProt P21554); assay: [3H]-CP-55,940 competition binding, hCB1 CHO membranes; conditions: for selectivity index (ratio Ki CB2 / Ki CB1): human CB receptors
T1 construct: host or cells: CHO cells
T1 sequence (P21554 whole entry): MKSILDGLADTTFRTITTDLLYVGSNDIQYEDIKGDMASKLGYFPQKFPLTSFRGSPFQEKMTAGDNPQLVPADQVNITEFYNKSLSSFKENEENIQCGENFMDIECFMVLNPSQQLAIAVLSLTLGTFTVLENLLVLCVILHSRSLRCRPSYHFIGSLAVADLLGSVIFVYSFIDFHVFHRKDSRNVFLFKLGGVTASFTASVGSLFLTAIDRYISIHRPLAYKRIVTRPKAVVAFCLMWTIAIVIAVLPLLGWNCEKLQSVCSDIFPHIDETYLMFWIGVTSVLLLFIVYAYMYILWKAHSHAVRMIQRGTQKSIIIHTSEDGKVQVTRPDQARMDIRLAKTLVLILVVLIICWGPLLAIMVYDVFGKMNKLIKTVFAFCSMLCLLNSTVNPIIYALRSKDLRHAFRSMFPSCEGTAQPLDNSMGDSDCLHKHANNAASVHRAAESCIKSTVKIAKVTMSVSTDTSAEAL
Experimental: CHO cells transfected with human CB1 or CB2 receptors (Perkin Elmer Life and Analytical Sciences, USA) were grown adherently and maintained in Ham’s F12 containing 10% fetal bovine serum, penicillin (100 U/ml), streptomycin (100 µg/ml), and Geneticin (G418, 0.4 mg/ml) at 37 °C in 5% CO2/95% air. To obtain membranes, cells were washed with PBS and scraped off with ice-cold hypotonic buffer (5 mM Tris HCl, 2 mM EDTA, pH 7.4). The cell suspension was homogenized with a Polytron and then centrifuged for 30 min at 40,000 × g. The membrane pellet was suspended in 50 mM Tris HCl buffer (pH 7.4) containing 2.5 mM EDTA, 5 mM MgCl2, 0.5% BSA for CB1 receptors or in 50 mM Tris HCl (pH 7.4), 1 mM EDTA, 5 mM MgCl2, 0.5% BSA for CB2 receptors (Vincenzi et al. [2013]).
Competition binding experiments were carried out incubating 0.5 nM [^3H]-CP-55,940 (Perkin Elmer Life and Analytical Sciences, USA) and different concentrations of the tested compounds for 90 or 60 min at 30 °C for CB1 or CB2 receptors, respectively. For human cannabinoid receptors, membranes obtained from CHO cells transfected with human CB1 or CB2 receptors (2 µg protein/100 µl) were used. Competition binding experiments at murine cannabinoid receptors were performed with mouse brain membranes (40 µg protein/100 µl) or with mouse spleen membranes (80 µg protein/100 µl) for CB1 receptors or CB2 receptors, respectively. Non-specific binding was determined in the presence of 1 mM WIN 55,212–2 (Vincenzi et al. [2013]). Bound and free radioactivity were separated by filtering the assay mixture through Whatman GF/C glass fiber filters using a Brandel cell harvester (Brandel Instruments, Unterföhring, Germany). The filter-bound radioactivity was counted using a Packard Tri Carb 2810 TR scintillation counter (Perkin Elmer Life and Analytical Sciences, USA).
The protein concentration was determined according to a Bio-Rad method (500–0006; Bio-Rad Laboratories, Hercules, CA, USA) with bovine serum albumin as a reference standard. Inhibitory binding constants, Ki, were calculated from the IC50 values according to the Cheng and Prusoff equation: Ki = IC50/(1 + [C*]/KD*), where [C*] is the concentration of the radioligand and KD* its dissociation constant. Functional experiments were analyzed by non-linear regression analysis using the equation for a sigmoid concentration–response curve (GraphPad Prism, USA). All the data are expressed as the mean ± SEM of three independent experiments.

Row | SMILES | effect on Total Object Exploration (TOE) time (CD-1 male mice; 0.1 mg/kg i.p.) | effect on Recognition Index (RI) (CD-1 male mice; 0.1 mg/kg i.p., 2 h) | effect on Total Object Exploration (TOE) time (CD-1 male mice; 1 mg/kg i.p., 2 and 24 h) | effect on Recognition Index (RI) (CD-1 male mice; 1 mg/kg i.p., 2 h) | effect on Recognition Index (RI) (CD-1 male mice; 0.1 and 1 mg/kg i.p., 24 h) | Ki (CB1 receptors) [nM] | Ki (human CB1 receptors) [nM] | selectivity index (ratio Ki CB2 / Ki CB1) (human CB1 receptors)
1 | O=C(c1cccc2ccccc12)c1cn(CCCCCF)c2ccccc12 [AM-2201, 1-[(5-Fluoropentyl)-1H-indol-3-yl](1-naphthylenyl) methanone] | did not alter | RI reduction | impaired | reversal | significant reduction | 1 | 1.66 ± 0.13 | 9.9
2 | Cc1ccc(C(=O)c2cn(CCCCCF)c3ccccc23)c2ccccc12 [MAM-2201, 1-[(5-fluoropentyl)-1H-indol-3-yl](4-methyl-1-naphthalenyl) methanone] | did not alter | significantly reduced | impaired | negative score | significant decrease | 2.07 ± 0.82 | 1.11 ± 0.12 | 9.3
